For this assay, the system named is Plasmodium falciparum. The experiment in a line: GSK_TCMDC: Inhibition of Plasmodium falciparum 3D7 in whole erythrocytes, using parasite LDH activity as an index of growth. In kind it is functional, organism-based. The note with it: Plasmodium falciparum, 3D7.
`Oc1cc(NCCCNC2CCc3c(Cl)cc(Cl)cc32)nc2ccccc12` (stereo unspecified) came in with an XC50 of 934 nM. To `CCN1CCC(N(Cc2ccc(-c3ccc(C(F)(F)F)cc3)cc2)C(=O)Cn2c(CCc3cccc(F)c3F)cc(=O)c3c2CCC3)CC1` belongs 972 nM; to `O=C(/C=C/c1ccc(Cl)c(Cl)c1)NCCCCCN1CCCN(C(=O)Nc2ccc(F)c(Cl)c2)CC1`, 799 nM.

The compound `Cc1cc(N[C@@H](CC(C)C)C(=O)NCc2cccs2)nc(NCCc2ccccc2)n1` gave an XC50 of 1190 nM. With `C=CCn1c(Sc2ccc(C#N)c([N+](=O)[O-])c2)nnc1-c1cccc(Cl)c1`, the XC50 is 301 nM. The compound `N=C(N)c1ccc2[nH]c(-c3cc4cc(C(=N)N)ccc4o3)cc2c1` displayed an XC50 of 179 nM. `Cc1cc(N[C@@H](CC(C)C)C(=O)NCCc2ccccc2)nc(Nc2ccccc2)n1` registered an XC50 of 816 nM. To `Cc1cc(O)nc(NC(=N)NOCc2ccccc2)n1` belongs 423 nM; to `CN1CCCN(c2ccnc3cc4c(cc23)N(C(=O)c2ccc(Cl)cc2)CC4)CC1`, 791 nM; to `COc1ccccc1CCN1CCC(CN(C)Cc2ccc(O)c(Cl)c2)CC1`, 335 nM. Consider `CC(C)(C)c1ccc2nccc(Nc3cccc(O)c3)c2c1`, for which the XC50 amounted to 973 nM. The compound `CN1CCC[C@H]1COc1ccc(CN2CC[C@H](NC(=O)c3ccc(Cl)c(Cl)c3)C2)c2ccccc12` yielded an XC50 of 946 nM. `Cc1noc(C)c1-c1cccc(CNCc2ccc(-c3cccc(-c4nc5ccccc5[nH]4)c3)cc2)c1` registered an XC50 of 569 nM. To `COc1ccc(O)c(C(=O)c2cnc3c(c2)c(-c2ccc(F)cc2)c(C#N)c(=O)n3C)c1` belongs 792 nM. For the compound `FC(F)(F)c1cnc(Sc2nnc(-c3ccco3)o2)c(Cl)c1`, the XC50 came out at 791 nM.

The compound `CCC(CSC1CCCCC1)N(C)CCN(C)C(CC)CSC1CCCCC1` (stereo unspecified) showed an XC50 of 314 nM. To `Cc1nc(-c2nc(N3CCC(O)CC3)ncc2-c2ccsc2)sc1C` belongs 939 nM.

`O=C(NCCc1ccccc1)N(Cc1ccccc1-c1cccc(CNCc2ccc3c(c2)OCO3)c1)C1CCN(Cc2ccccc2)CC1`: the XC50 turned out to be 987 nM. For `CCOC(=O)c1ccc2[nH]c(-c3ccc(C(=O)NC4CCN(Cc5ccccc5)CC4)s3)nc2c1` the value was 745 nM. Take `Cc1cc(-c2ccc(CNC3Cc4ccccc4C3)cc2)ccc1S(=O)(=O)NCCN1CCCC1`: the XC50 turned out to be 704 nM. `Cc1cc(=NN=Cc2cccc(F)c2)c2cc(F)ccc2[nH]1` gave an XC50 of 478 nM.

On to `O=C(NCCc1ccccc1F)c1cc(Br)cc(N2CCN(c3ccncc3)CC2)c1`, for which the XC50 is 756 nM. For `CN(C)c1ccc(CN2CCC(NC(=O)c3ccc(-c4cccc(C(F)(F)F)c4)s3)CC2)cc1` the value was 1150 nM. Take `Clc1ccc(-n2cnc3c(Nc4ccc(Oc5ccccc5)cc4)ncnc32)cc1Cl`: the XC50 is 747 nM. `CCCCCCN1CCN(Cc2cccc(NC(=O)c3ccc(Cl)c(Cl)c3)c2)CC1` came in with an XC50 of 610 nM. Regarding `COc1cc2c(cc1OC)CN(CCc1ccc(NC(=O)c3cc4cc(OC(F)(F)F)ccc4[nH]3)cc1)CC2`, the XC50 amounted to 535 nM. The compound `CN1CCC(NCc2cccc(-c3ccc(S(=O)(=O)NCCc4ccccn4)cc3)c2)CC1` registered an XC50 of 827 nM. For the compound `Cc1cc(N(C)C2CCN(CC3CCCCC3)C2)nc(Nc2ccc(Cl)cc2)n1` (stereo unspecified), the XC50 came out at 679 nM. To `CCOC(=O)c1cc2c(CCN3C(=O)c4ccccc4C3=O)cn(C)c2cc1-c1ccncc1` belongs 583 nM; to `CC(C)CNCc1cccc(-c2ccc(CN(C(=O)c3cccs3)C3CCN(Cc4ccccc4)CC3)cc2)c1`, 1010 nM; to `N#Cc1ccc(-c2ccc(C(=O)NCCCCN3CCC(c4nc5ccccc5[nH]4)CC3)cc2)cc1`, 1010 nM. `Cc1nc2nc(N)nc(N)c2c(C)c1Cc1ccc(C(F)(F)F)cc1` registered an XC50 of 747 nM.

As to `Nc1nccc(-c2ccc3c(/C=C/c4ccccc4)cnc(N)c3c2)n1`, the XC50 stood at 621 nM.

Regarding `Cc1cc2c(cc1C(F)(F)F)N(C(=O)Nc1cc(C(=O)NCCN(C)C)cc(C(F)(F)F)c1)CC2`, the XC50 was 730 nM. For `CC1CN(c2ncc(-c3ccc(CNC4Cc5ccccc5C4)cc3)cn2)CC(C)N1` (stereo unspecified) the value was 1160 nM; for `COc1ccc(CNC2CCN(C)CC2)cc1-c1ccc(S(=O)(=O)NCCc2ccccn2)c(F)c1`, 819 nM. For `COc1ccc(S(=O)(=O)Nc2ccc(C(=O)NCc3ccc(C(F)(F)F)cc3)cc2)cc1N1CCN(CC2CC2)CC1` the value was 1120 nM; for `c1cc2[nH]c(CCc3nc4cc(C5=NC6CCCCC6N5)ccc4[nH]3)nc2cc1C1=NC2CCCCC2N1` (stereo unspecified), 230 nM; for `COc1ccccc1/C=C/C(=O)NCCC1CCN(CCCCCNC(=O)/C=C/c2ccc(Cl)c(Cl)c2)CC1`, 807 nM. To `CC(=O)Nc1ccc(CN2CCC(NC(=O)c3ccc(-c4cccc(F)c4)s3)CC2)cc1` belongs 1430 nM; to `Cc1cccc2nc(-c3ccc(-c4cccc(CN5CCN(CCO)CC5)c4)cc3)[nH]c12`, 730 nM. On to `COc1ccc2nccc([C@@H](O)CN3CCC(NCc4ccc5sc(=O)[nH]c5c4)CC3)c2c1`, for which the XC50 amounted to 287 nM.

For `O=C1CSc2ccc(CNC3CCN(CCc4c(F)cnc5ccc(F)cc45)CC3)nc2N1`, the XC50 worked out at 525 nM. To `CCOC(=O)c1c(-c2ccccc2)nc2c(sc3ccccc32)c1O` belongs 375 nM. To `Oc1ccc(-c2cc(COc3ccccc3C(F)(F)F)c(C3=CCNCC3)cc2COc2ccccc2C(F)(F)F)cc1` belongs 775 nM; to `Cc1cnc(NCC2CCCCC2)nc1N[C@@H](CO)C(=O)Nc1ccccc1`, 1100 nM. To `CN1CCC(N(Cc2ccc(-c3cnc(NCc4ccccc4)nc3)cc2)S(=O)(=O)c2ccccc2)CC1` belongs 777 nM; to `O=C(NC1CCC(N2CCCC(OCc3ccccc3)C2)CC1)c1cc2ccccc2[nH]1` (stereo unspecified), 1210 nM; to `OCCOCn1cnc2cnc(N[C@H]3OC[C@H](O)[C@@H](O)[C@@H]3O)nc21`, 1640 nM.

As to `COc1ccc2nccc([C@@H](O)CN3CCC(NCc4ccc5c(c4)nnn5C(C)C)CC3)c2c1`, the XC50 worked out at 642 nM.

`Cc1cc(=O)oc2c1ccc1oc(C(O)c3ccc(Cl)cc3)c(C)c12` (stereo unspecified): the XC50 stood at 130 nM.

As for `CC(C)CNCc1cccc(-c2ccc(CNC3CCN(Cc4ccccc4)CC3)cc2)c1`, the XC50 was determined as 271 nM.

`O=C(Nc1ccon1)c1cc(-c2cccnc2)nc2ccc(Cl)cc12` came in with an XC50 of 786 nM.

`Cc1noc(C)c1-c1cccc(CNCc2cccc(-c3cccc(-c4nc5cc(C(F)(F)F)ccc5[nH]4)c3)c2)c1` registered an XC50 of 456 nM. Take `Cc1cc2c(cc1C(F)(F)F)N(C(=O)Nc1cc(OCCN(C)C)cc(C(F)(F)F)c1)CC2`: the XC50 worked out at 708 nM. On to `CC[C@H]1CN2CC[C@H]1C[C@H]2[C@H](O)c1cc(-c2ccc(OC(F)(F)F)cc2)nc2ccc(OC)cc12`, for which the XC50 was found to be 51.1 nM.

In turn, `Cc1cccc(CNc2nc(C)cc(NCCC(=O)NCc3cccc(F)c3)n2)c1` returned an XC50 of 850 nM.

`Cc1cc(C(=O)Nc2ccc(OCc3ccccc3)cc2)on1` returned an XC50 of 991 nM. For `Cn1nc(-c2ccc(NC(=O)Nc3cc(C(F)(F)F)cc(C(F)(F)F)c3)c(F)c2)c2cnc(NCCN3CCOCC3)nc21` the value was 801 nM.

With `COc1ccc(-c2ccc(NC(=O)c3cccc(Cl)c3)cc2)cc1CN(C)CCO`, the XC50 stood at 710 nM.

On to `CC(C)C(NC(=O)Cc1cccc2ccccc12)C(=O)Nc1cccc(C#N)c1` (stereo unspecified), for which the XC50 was 656 nM.

In turn, `O=S(=O)(c1ccccc1)n1ccc2cc(Nc3ncnc4cc(C#C[C@H]5CCCN5)sc34)ccc21` returned an XC50 of 1070 nM.

The compound `CCN(CC)CCOc1ccc(C(O)(C#CC(O)(c2ccc(Br)cc2)c2ccc(OCCN(CC)CC)cc2)c2ccc(Br)cc2)cc1` (stereo unspecified) had an XC50 of 616 nM. For the compound `COc1cc(NC(=O)c2sc(-c3ccc(Cl)cc3)cc2NC(=O)c2cccnc2)ccc1OCCN1CCCC1`, the XC50 came out at 380 nM. To `CCCC(C)n1ccc2c3c(N)nc(N)nc3ccc21` (stereo unspecified) belongs 47.6 nM. Compound `COc1ccc2c(NN=Cc3ccccn3)ccnc2c1` showed an XC50 of 374 nM. Turning to `C[C@H](Nc1c(Nc2ccc3[nH]ccc3c2)c(=O)c1=O)C1CCCCC1`, the XC50 came to 213 nM. For `CC(=O)c1ccc(Nc2c(C(N)=O)cnc3cc(-c4c(C)noc4C)ccc23)cc1` the value was 195 nM; for `CNC(=O)CNC(=O)COc1cccc2ccccc12`, 226 nM; for `COc1ccc(Br)cc1/C=C/C(=O)Nc1ccc(C2CCCN(C)C2)cc1` (stereo unspecified), 633 nM.

As to `CC(=O)NCCCCC1NC2(C(=O)N(Cc3ccc(C(C)(C)C)cc3)c3ccccc32)C2C(=O)N(C3CCCCC3)C(=O)C12` (stereo unspecified), the XC50 amounted to 788 nM. `Cc1ccc2c(c1)C1(CC(=O)N(CCc3scnc3C)C1=O)C(=O)N2Cc1ccccc1` (stereo unspecified) yielded an XC50 of 1250 nM.

As for `ON=C1CCc2cc(-c3nc(-c4ccc(OCCN5CCCCC5)cc4)[nH]c3-c3ccncc3)ccc21`, the XC50 was 804 nM. To `O=C(Nc1ccccc1Cl)c1cc2ccccc2cc1O` belongs 1010 nM; to `Cc1ccc2c(c1[N+](=O)[O-])N=NCC2Oc1ccccc1` (stereo unspecified), 868 nM; to `CC1(C)NC(N)=NC(=N)N1OCOc1ccc(Cl)cc1`, 4.6 nM. To `CCCCSc1ccc2nc(-c3c[nH]c4ccc(C#N)cc34)cn2c1` belongs 948 nM; to `CCc1ccc(-n2c(=O)c3cccnc3n2CC(=O)NC2CCCC2)cc1`, 917 nM; to `CCC1CCc2cc(N)cc(-c3nc4c(c(C)nn4CC)c(=O)[nH]3)c2O1` (stereo unspecified), 1120 nM. With `CC(C)(C)Nc1nc(Nc2cccc([N+](=O)[O-])c2)nc(-n2ccnc2)n1`, the XC50 was determined as 811 nM.

With `COc1ccc(CCN(C)CCCN2CCC(NC(=O)c3cccc4c(=O)c5ccccc5[nH]c34)CC2)cc1OC`, the XC50 was found to be 695 nM. On to `Cc1cccc2nc(-c3cccc(-c4ccc(NC(=O)C(C)CN5CCN(C)CC5)cc4)c3)[nH]c12` (stereo unspecified), for which the XC50 came out at 175 nM. With `Oc1c(CN2CCC(Cc3ccccc3)CC2)cc(Cl)c2cccnc12`, the XC50 is 881 nM. To `CCC(C)NC(=O)Nc1ccc(-c2cccc(-c3nc4ccccc4[nH]3)c2)cc1` (stereo unspecified) belongs 821 nM. Turning to `N=C(N)c1ccc(Nc2nc(Nc3ccc(-c4ccccc4)cc3)ncc2[N+](=O)[O-])cc1`, the XC50 was 804 nM.

With `Cc1nc(-c2ccc(-c3ccc(C(=O)Nc4ccc(-n5ccnc5)c(N5CCN(C)CC5)c4)cc3)c(C)c2)no1`, the XC50 stood at 834 nM.

The record behind these values is ChEMBL document CHEMBL1157539, “Thousands of chemical starting points for antimalarial lead identification” (Nature, 2010).
